Data: PMC9986241 (Signal Transduction and Targeted Therapy, 2023)
One block for each compound: values may come before it.

Columns and labels:
Test in all cases: KinaseProfiler enzyme profiling
Format in all cases: biochemical
CDK2/cyclinA(h) = biological target: T1, CDK2/cyclinA(h) (Homo sapiens, UniProt P24941)
T1 construct: purchased Eurofins KinaseProfiler
Description: (§1) Enzyme profiling services were provided by KinaseProfiler™ (Eurofin, Brussels, Belgium). The concentration of erianin was 100 nM, and total 70 kinases were tested in this in vitro screening and profiling services (2 repetitions). For more details, refer to the manufacturer’s instructions (www.eurofinsdiscoveryservices.com).

IKKα(h) = biological target: T2, IKKα(h) (Homo sapiens, UniProt O15111)
T2 construct: purchased Eurofins KinaseProfiler
T2 sequence (O15111 1-745): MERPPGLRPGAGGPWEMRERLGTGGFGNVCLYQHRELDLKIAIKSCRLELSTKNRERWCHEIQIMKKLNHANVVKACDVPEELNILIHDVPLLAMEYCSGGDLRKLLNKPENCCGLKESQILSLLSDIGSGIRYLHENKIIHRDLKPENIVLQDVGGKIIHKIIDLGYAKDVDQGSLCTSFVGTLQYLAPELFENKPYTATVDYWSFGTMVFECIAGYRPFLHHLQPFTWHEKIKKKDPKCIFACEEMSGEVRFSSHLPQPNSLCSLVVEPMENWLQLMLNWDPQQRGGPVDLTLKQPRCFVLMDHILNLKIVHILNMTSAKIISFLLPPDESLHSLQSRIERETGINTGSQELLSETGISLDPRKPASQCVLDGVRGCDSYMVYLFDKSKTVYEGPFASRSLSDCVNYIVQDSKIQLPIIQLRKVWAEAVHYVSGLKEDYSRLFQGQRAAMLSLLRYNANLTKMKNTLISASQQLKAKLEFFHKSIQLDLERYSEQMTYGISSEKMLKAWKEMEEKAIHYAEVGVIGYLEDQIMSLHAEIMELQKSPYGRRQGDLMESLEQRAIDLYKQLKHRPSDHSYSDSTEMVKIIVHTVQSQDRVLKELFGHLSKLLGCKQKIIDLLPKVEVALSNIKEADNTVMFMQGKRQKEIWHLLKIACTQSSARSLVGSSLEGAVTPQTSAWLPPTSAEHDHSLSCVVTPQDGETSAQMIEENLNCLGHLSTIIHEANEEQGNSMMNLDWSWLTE
Description: as §1

JAK1(h) = biological target: T3, JAK1(h) (Homo sapiens, UniProt P23458)
T3 construct: purchased Eurofins KinaseProfiler
Description: as §1

PAK2(h) = biological target: T4, PAK2(h) (Homo sapiens, UniProt Q13177)
T4 construct: purchased Eurofins KinaseProfiler
Description: as §1

MAPK1(h) = biological target: T5, MAPK1(h) (Homo sapiens, UniProt P27361)
T5 construct: purchased Eurofins KinaseProfiler
Description: as §1

B-Raf(V599E)(h) = biological target: T6, B-Raf(V599E)(h) (Homo sapiens, UniProt P15056, V600E)
T6 construct: purchased Eurofins KinaseProfiler
Description: as §1

PAK1(h) = biological target: T7, PAK1(h) (Homo sapiens, UniProt Q13153)
T7 construct: purchased Eurofins KinaseProfiler
Description: as §1

PAK4(h) = biological target: T8, PAK4(h) (Homo sapiens, UniProt O96013)
T8 construct: purchased Eurofins KinaseProfiler
Description: as §1

EGFR(h) = biological target: T9, EGFR(h) (Homo sapiens, UniProt P00533)
T9 construct: purchased Eurofins KinaseProfiler
Description: as §1

MSK2(h) = biological target: T10, MSK2(h) (Homo sapiens, UniProt O75676)
T10 construct: purchased Eurofins KinaseProfiler
Description: as §1

EGFR(T790M,L858R)(h) = biological target: T11, EGFR(T790M,L858R)(h) (Homo sapiens, UniProt P00533, L858R/T790M)
T11 construct: purchased Eurofins KinaseProfiler
Description: as §1

MEK1(h) = biological target: T12, MEK1(h) (Homo sapiens, UniProt Q02750)
T12 construct: purchased Eurofins KinaseProfiler
Description: as §1

CDK1/cyclinB(h) = biological target: T13, CDK1/cyclinB(h) (Homo sapiens, UniProt P06493)
T13 construct: purchased Eurofins KinaseProfiler
Description: as §1

PKA(h) = biological target: T14, PKA(h) (Homo sapiens, UniProt P17612)
T14 construct: purchased Eurofins KinaseProfiler
Description: as §1

CDK3/cyclinE(h) = biological target: T15, CDK3/cyclinE(h) (Homo sapiens, UniProt Q00526)
T15 construct: purchased Eurofins KinaseProfiler
Description: as §1

CaMKIV(h) = biological target: T16, CaMKIV(h) (Homo sapiens, UniProt Q16566)
T16 construct: purchased Eurofins KinaseProfiler
Description: as §1

Pim-1(h) = biological target: T17, Pim-1(h) (Homo sapiens, UniProt P11309)
T17 construct: purchased Eurofins KinaseProfiler
Description: as §1

MSK1(h) = biological target: T18, MSK1(h) (Homo sapiens, UniProt O75582)
T18 construct: purchased Eurofins KinaseProfiler
Description: as §1

MAPK2(h) = biological target: T19, MAPK2(h) (Homo sapiens, UniProt P28482)
T19 construct: purchased Eurofins KinaseProfiler
Description: as §1

cSRC(h) = biological target: T20, cSRC(h) (Homo sapiens, UniProt P12931)
T20 construct: purchased Eurofins KinaseProfiler
Description: as §1

CDK9/cyclin T1(h) = biological target: T21, CDK9/cyclin T1(h) (Homo sapiens, UniProt P50750)
T21 construct: purchased Eurofins KinaseProfiler
Description: as §1

IKKβ(h) = biological target: T22, IKKβ(h) (Homo sapiens, UniProt O14920)
T22 construct: purchased Eurofins KinaseProfiler
Description: as §1

JNK2α2(h) = biological target: T23, JNK2α2(h) (Homo sapiens, UniProt P45984)
T23 construct: purchased Eurofins KinaseProfiler
Description: as §1

PDGFRα(h) = biological target: T24, PDGFRα(h) (Homo sapiens, UniProt P16234)
T24 construct: purchased Eurofins KinaseProfiler
Description: as §1

PKBα(h) = biological target: T25, PKBα(h) (Homo sapiens, UniProt P31749)
T25 construct: purchased Eurofins KinaseProfiler
Description: as §1

FAK(h) = biological target: T26, FAK(h) (Homo sapiens, UniProt Q05397)
T26 construct: purchased Eurofins KinaseProfiler
Description: as §1

ROCK-I(h) = biological target: T27, ROCK-I(h) (Homo sapiens, UniProt Q13464)
T27 construct: purchased Eurofins KinaseProfiler
Description: as §1

SAPK3(h) = biological target: T28, SAPK3(h) (Homo sapiens, UniProt P53778)
T28 construct: purchased Eurofins KinaseProfiler
Description: as §1

SAPK4(h) = biological target: T29, SAPK4(h) (Homo sapiens, UniProt O15264)
T29 construct: purchased Eurofins KinaseProfiler
Description: as §1

AMPKα2(h) = biological target: T30, AMPKα2(h) (Homo sapiens, UniProt P54646)
T30 construct: purchased Eurofins KinaseProfiler
Description: as §1

PKBβ(h) = biological target: T31, PKBβ(h) (Homo sapiens, UniProt P31751)
T31 construct: purchased Eurofins KinaseProfiler
Description: as §1

PKCα(h) = biological target: T32, PKCα(h) (Homo sapiens, UniProt P17252)
T32 construct: purchased Eurofins KinaseProfiler
Description: as §1

T7 sequence (Q13153 whole entry): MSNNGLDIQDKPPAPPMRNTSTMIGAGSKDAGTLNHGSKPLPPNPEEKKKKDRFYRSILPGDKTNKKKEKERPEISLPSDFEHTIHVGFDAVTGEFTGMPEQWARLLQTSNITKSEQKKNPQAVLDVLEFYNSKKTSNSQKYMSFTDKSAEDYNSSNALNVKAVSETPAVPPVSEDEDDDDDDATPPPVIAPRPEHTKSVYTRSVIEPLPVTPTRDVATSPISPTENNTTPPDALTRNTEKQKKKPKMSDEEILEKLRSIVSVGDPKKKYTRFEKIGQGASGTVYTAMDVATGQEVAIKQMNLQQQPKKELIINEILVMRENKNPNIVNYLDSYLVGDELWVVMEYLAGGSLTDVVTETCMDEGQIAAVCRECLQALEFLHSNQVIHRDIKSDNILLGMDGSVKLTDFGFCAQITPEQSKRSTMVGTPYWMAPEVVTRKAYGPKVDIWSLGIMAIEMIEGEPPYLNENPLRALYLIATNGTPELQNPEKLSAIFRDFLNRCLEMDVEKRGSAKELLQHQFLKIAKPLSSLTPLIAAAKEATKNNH
T8 sequence (O96013 whole entry): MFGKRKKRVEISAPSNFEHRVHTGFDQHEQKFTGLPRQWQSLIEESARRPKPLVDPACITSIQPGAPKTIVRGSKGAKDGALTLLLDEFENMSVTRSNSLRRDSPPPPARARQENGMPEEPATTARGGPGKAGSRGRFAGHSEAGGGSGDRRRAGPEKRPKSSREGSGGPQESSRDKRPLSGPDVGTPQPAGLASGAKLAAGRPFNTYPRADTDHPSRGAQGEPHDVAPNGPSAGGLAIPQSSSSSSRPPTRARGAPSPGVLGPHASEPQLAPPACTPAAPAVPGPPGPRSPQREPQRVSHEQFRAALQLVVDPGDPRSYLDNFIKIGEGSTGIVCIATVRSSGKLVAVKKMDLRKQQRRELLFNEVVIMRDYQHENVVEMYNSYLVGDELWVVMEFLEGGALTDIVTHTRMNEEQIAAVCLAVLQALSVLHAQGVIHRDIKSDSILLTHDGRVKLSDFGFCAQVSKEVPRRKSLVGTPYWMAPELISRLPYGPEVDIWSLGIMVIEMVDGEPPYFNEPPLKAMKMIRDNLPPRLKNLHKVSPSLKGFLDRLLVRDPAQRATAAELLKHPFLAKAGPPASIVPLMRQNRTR
T5 sequence (P27361 whole entry): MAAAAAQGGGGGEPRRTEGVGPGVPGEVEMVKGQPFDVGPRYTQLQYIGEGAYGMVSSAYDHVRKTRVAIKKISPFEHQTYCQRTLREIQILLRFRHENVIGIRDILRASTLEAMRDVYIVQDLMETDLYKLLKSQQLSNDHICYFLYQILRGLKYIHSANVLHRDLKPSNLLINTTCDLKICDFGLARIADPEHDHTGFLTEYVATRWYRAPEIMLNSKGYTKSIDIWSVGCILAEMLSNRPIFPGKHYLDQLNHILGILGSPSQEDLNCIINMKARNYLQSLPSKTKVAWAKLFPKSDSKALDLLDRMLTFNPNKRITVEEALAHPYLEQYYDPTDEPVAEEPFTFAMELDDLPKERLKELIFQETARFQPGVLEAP
T19 sequence (P28482 whole entry): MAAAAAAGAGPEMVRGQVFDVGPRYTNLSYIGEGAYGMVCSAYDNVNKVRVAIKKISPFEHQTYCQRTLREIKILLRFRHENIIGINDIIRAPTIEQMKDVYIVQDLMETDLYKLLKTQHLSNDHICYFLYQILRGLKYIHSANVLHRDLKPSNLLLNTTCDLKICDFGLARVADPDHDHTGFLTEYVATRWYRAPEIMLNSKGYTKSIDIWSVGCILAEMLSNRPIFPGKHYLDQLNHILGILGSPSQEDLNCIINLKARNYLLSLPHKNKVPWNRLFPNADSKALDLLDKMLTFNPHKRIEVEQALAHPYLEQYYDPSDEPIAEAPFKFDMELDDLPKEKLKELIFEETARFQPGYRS
T12 sequence (Q02750 whole entry): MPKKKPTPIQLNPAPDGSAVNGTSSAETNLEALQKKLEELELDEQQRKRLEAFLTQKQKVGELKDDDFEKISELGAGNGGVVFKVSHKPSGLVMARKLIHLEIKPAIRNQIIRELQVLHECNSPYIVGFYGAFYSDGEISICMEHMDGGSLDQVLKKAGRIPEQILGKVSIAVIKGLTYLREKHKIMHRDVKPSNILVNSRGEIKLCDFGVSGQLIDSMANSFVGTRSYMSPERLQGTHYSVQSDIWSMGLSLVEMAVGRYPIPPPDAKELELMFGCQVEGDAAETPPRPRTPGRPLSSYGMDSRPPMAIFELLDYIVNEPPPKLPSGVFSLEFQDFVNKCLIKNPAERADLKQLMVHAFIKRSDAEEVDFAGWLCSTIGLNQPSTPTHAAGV
T21 sequence (P50750 whole entry): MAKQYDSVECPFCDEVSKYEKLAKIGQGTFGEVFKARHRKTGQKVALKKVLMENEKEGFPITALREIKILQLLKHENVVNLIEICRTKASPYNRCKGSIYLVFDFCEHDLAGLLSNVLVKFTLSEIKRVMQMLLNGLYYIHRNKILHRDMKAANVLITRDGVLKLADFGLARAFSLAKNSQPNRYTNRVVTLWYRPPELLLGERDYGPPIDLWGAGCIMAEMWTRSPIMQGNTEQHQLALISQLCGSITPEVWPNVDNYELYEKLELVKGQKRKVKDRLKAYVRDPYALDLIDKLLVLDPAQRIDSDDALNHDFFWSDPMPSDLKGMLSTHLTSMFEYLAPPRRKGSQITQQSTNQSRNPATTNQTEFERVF
T21 sequence (O60563 whole entry partner): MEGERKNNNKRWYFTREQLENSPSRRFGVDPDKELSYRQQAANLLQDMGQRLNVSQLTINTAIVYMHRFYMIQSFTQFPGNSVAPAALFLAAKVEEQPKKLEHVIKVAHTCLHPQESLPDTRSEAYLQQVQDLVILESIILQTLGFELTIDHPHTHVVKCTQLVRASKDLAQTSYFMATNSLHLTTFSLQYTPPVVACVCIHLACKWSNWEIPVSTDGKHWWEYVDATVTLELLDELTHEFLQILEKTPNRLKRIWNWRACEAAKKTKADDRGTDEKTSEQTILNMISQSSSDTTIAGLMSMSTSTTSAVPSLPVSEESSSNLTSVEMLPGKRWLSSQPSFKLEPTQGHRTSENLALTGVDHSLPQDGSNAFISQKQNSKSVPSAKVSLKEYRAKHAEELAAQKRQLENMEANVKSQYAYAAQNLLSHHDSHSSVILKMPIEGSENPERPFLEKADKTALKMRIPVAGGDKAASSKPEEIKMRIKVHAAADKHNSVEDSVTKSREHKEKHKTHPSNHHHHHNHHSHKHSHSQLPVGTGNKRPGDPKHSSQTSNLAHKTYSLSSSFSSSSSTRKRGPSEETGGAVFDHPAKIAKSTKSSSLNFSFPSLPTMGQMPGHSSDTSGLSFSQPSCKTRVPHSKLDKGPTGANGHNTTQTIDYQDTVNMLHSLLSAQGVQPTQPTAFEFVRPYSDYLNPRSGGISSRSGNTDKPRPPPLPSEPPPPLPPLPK
T4 sequence (Q13177 whole entry): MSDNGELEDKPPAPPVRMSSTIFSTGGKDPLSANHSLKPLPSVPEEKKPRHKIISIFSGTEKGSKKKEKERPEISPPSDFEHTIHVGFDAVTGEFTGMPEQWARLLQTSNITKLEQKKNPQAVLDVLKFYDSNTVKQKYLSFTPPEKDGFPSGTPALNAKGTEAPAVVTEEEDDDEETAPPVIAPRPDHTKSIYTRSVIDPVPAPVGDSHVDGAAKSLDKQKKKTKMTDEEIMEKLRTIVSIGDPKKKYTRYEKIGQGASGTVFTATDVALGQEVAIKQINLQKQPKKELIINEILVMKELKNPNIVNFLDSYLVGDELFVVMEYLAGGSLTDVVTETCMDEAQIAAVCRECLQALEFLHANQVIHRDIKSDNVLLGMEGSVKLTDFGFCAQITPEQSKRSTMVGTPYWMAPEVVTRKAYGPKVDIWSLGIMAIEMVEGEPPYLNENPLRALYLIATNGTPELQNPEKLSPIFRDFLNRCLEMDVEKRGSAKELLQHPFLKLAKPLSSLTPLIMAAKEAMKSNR
T13 sequence (P06493 whole entry): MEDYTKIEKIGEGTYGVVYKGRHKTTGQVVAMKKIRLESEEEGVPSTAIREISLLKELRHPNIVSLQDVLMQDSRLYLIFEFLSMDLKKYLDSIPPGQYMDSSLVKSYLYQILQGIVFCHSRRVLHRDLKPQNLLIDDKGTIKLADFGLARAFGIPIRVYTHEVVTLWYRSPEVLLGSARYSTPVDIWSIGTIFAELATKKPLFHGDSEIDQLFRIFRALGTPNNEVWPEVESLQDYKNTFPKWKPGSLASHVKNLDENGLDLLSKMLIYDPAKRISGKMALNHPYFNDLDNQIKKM
T13 sequence (P14635 whole entry partner): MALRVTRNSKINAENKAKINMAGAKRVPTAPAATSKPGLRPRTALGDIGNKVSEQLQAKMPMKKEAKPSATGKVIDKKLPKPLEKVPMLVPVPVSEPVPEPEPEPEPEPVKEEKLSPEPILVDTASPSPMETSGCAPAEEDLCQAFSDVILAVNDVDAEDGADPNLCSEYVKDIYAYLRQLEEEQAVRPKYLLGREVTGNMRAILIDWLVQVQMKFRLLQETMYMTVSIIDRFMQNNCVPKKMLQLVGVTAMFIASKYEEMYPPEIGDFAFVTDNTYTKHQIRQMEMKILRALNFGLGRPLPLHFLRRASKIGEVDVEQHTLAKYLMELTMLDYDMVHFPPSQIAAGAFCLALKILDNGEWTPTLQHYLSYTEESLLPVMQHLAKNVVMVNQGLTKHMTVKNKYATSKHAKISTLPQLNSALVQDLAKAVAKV
T6 sequence (P15056 416-766 V600E limits assumed): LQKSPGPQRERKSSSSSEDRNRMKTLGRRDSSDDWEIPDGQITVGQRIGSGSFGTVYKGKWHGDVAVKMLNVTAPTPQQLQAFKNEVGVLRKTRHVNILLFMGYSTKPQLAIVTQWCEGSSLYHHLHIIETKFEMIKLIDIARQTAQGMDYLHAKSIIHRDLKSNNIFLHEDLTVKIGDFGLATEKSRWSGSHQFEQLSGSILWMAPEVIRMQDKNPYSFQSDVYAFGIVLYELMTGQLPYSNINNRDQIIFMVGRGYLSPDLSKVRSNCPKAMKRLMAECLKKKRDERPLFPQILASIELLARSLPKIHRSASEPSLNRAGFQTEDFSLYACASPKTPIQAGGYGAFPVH

activity at 10 µM (CDK2/cyclinA(h)): 91%
activity at 10 µM (IKKα(h)): 102%
activity at 10 µM (JAK1(h)): 99%
activity at 10 µM (PAK2(h)): 111%
activity at 10 µM (MAPK1(h)): 103%
activity at 10 µM (B-Raf(V599E)(h); 10 µM): 106%
activity at 10 µM (PAK1(h)): 104%
activity at 10 µM (PAK4(h)): 104%
activity at 10 µM (EGFR(h)): 98%
activity at 10 µM (MSK2(h)): 108%
activity at 10 µM (EGFR(T790M,L858R)(h); 10 µM): 101%
activity at 10 µM (MEK1(h)): 105%
activity at 10 µM (CDK1/cyclinB(h)): 97%
activity at 10 µM (PKA(h)): 100%
activity at 10 µM (CDK3/cyclinE(h)): 97%
activity at 10 µM (CaMKIV(h); 10 µM): 93%
activity at 10 µM (Pim-1(h); 10 µM): 112%
activity at 10 µM (MSK1(h)): 106%
activity at 10 µM (MAPK2(h)): 114%
activity at 10 µM (cSRC(h)): 133%
activity at 10 µM (CDK9/cyclin T1(h)): 98%
SMILES: COc1cc2oc(-c3ccc(O)c(O)c3)cc(=O)c2c(O)c1OC [Cirsiliol]

SMILES: COc1ccc(CCc2cc(OC)c(OC)c(OC)c2)cc1O [Erianin]
activity at 0.1 µM (CDK2/cyclinA(h)): 94%
activity at 0.1 µM (IKKβ(h)): 95%
activity at 0.1 µM (IKKα(h)): 108%
activity at 0.1 µM (JNK2α2(h)): 91%
activity at 0.1 µM (JAK1(h)): 117%
activity at 0.1 µM (PDGFRα(h)): 91%
activity at 0.1 µM (PAK2(h)): 107%
activity at 0.1 µM (MAPK1(h)): 92%
activity at 0.1 µM (B-Raf(V599E)(h)): 109%
activity at 0.1 µM (PAK1(h)): 109%
activity at 0.1 µM (PKBα(h)): 105%
activity at 0.1 µM (PAK4(h)): 93%
activity at 0.1 µM (EGFR(h)): 105%
activity at 0.1 µM (FAK(h)): 89%
activity at 0.1 µM (ROCK-I(h)): 125%
activity at 0.1 µM (SAPK3(h)): 112%
activity at 0.1 µM (EGFR(T790M,L858R)(h)): 120%
activity at 0.1 µM (MEK1(h)): 99%
activity at 0.1 µM (CaMKIV(h)): 91%
activity at 0.1 µM (SAPK4(h)): 103%
activity at 0.1 µM (AMPKα2(h)): 118%
activity at 0.1 µM (PKBβ(h)): 97%
activity at 0.1 µM (Pim-1(h)): 98%
activity at 0.1 µM (PKCα(h)): 89%
activity at 0.1 µM (MAPK2(h)): 104%
activity at 0.1 µM (CDK9/cyclin T1(h)): 97%

activity at 10 µM (CDK2/cyclinA(h)): 67%
activity at 10 µM (IKKβ(h); 10 µM): 105%
activity at 10 µM (IKKα(h)): 80%
activity at 10 µM (JNK2α2(h); 10 µM): 115%
activity at 10 µM (JAK1(h)): 75%
activity at 10 µM (PDGFRα(h); 10 µM): 71%
activity at 10 µM (PAK2(h)): 99%
activity at 10 µM (MAPK1(h)): 63%
activity at 10 µM (PAK1(h)): 110%
activity at 10 µM (PKBα(h); 10 µM): 90%
activity at 10 µM (PAK4(h)): 86%
activity at 10 µM (EGFR(h)): 91%
activity at 10 µM (FAK(h); 10 µM): 76%
activity at 10 µM (ROCK-I(h); 10 µM): 86%
activity at 10 µM (MSK2(h)): 69%
activity at 10 µM (SAPK3(h); 10 µM): 122%
activity at 10 µM (MEK1(h)): 92%
activity at 10 µM (CDK1/cyclinB(h)): 63%
activity at 10 µM (PKA(h)): 108%
activity at 10 µM (CDK3/cyclinE(h)): 70%
activity at 10 µM (SAPK4(h); 10 µM): 106%
activity at 10 µM (AMPKα2(h); 10 µM): 72%
activity at 10 µM (PKBβ(h); 10 µM): 106%
activity at 10 µM (MSK1(h)): 93%
activity at 10 µM (PKCα(h); 10 µM): 69%
activity at 10 µM (MAPK2(h)): 82%
activity at 10 µM (cSRC(h)): 59%
activity at 10 µM (CDK9/cyclin T1(h)): 59%
SMILES: C=C1C(=O)[C@]23[C@H](O)[C@H]1CC[C@H]2[C@@]12CO[C@]3(O)[C@@H](O)[C@@H]1C(C)(C)CC[C@@H]2O [Oridonin]
